Results from BindingDB's records for doi:10.1021/cb500360c (AstraZeneca, 2014).

What was measured:
[1] = target: UDP-N-acetylmuramate--L-alanine ligase (Escherichia coli (strain K12), UniProt P17952); experiment: E.coli MurC assay; conditions: 25 °C
Protocol: The reactions (25 μL) were carried out in 25 mM Tris-HCl pH 8.0, 10 mM ammonium sulfate, 1.25 mM DTT, 0.002% Brij-35, 10 mM MgCl2, 40 μM UNAM, 100 μM ATP, 40 μM L-alanine and 15 nM enzyme in 384-well plate at 25 C for 50 minutes.

[2] = target: UDP-N-acetylmuramate--L-alanine ligase (Pseudomonas aeruginosa (strain ATCC 15692 / DSM 22644 / CIP 104116 / JCM 14847 / LMG 12228 / 1C / PRS 101 / PAO1), UniProt Q9HW02); experiment: P. aeruginosa MurC assay; conditions: 25 °C
Protocol: The reactions (50 μL) were carried out in 50 mM Tris-HCl pH 8.0, 20 mM ammonium sulfate, 2.5 mM DTT, 0.002% Brij-35, 1 mM MgCl2, 18 μM UNAM, 38 μM ATP, 28 μM L-alanine, 2 μg/mL Poly uridine nucleic acid, 0.1 μM Polynucleotide Phosphorylase, 0.25X ribogreen and 3 nM enzyme in 384-well plate at 25 C for 60 minutes.

Chain of UDP-N-acetylmuramate--L-alanine ligase (Escherichia coli (strain K12), UniProt P17952) (P17952 whole entry): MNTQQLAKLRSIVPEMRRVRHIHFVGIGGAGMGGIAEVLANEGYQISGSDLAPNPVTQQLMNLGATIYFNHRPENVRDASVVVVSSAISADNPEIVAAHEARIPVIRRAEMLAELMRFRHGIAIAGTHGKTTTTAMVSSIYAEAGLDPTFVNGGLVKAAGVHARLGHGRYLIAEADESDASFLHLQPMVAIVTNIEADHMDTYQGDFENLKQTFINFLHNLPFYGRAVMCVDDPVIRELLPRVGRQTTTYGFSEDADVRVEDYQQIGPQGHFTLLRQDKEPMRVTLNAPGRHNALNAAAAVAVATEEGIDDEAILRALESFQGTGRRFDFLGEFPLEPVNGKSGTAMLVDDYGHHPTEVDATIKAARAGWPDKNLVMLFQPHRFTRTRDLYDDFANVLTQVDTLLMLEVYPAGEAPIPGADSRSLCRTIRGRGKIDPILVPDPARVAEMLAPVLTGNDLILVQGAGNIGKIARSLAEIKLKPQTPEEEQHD

SMILES: Cn1nc(Nc2nc(NC(CO)C3CCOCC3)nc3n[nH]cc23)cc1C(C)(C)C (stereo unspecified) [2-(4-(5-tert-butyl-1-methyl-1H-pyrazol-3-ylamino)-1H-pyrazolo[3,4-d]pyrimidin-6-ylamino)-2-(tetrahydro-2H-pyran-4-yl)ethanol (8)]
- IC50 [1]: 101 nM
- IC50 [2]: 11 nM

SMILES: OCC1CCCCN1c1nc(Nc2cc(C3CC3)[nH]n2)c2cn[nH]c2n1 (stereo unspecified) [(1-(4-(3-cyclopropyl-1H-pyrazol-5-ylamino)-1H-pyrazolo[3,4-d]pyrimidin-6-yl)piperidin-2-yl)methanol (1)]
- IC50 [2]: 1000 nM

SMILES: Cn1nc(Nc2nc(N[C@@H]3c4ccccc4C[C@@H]3O)nc3n[nH]cc23)cc1C(C)(C)C [(1R,2S)-1-(4-(5-tert-butyl-1-methyl-1H-pyrazol-3-ylamino)-1H-pyrazolo[3,4-d]pyrimidin-6-ylamino)-2,3-dihydro-1H-inden-2-ol (13)]
- IC50 [1]: 2 nM

SMILES: Cn1nc(Nc2nc(N[C@H](CO)C3CCCCC3)nc3n[nH]cc23)cc1C(C)(C)C [((S)-2-(4-(5-tert-butyl-1-methyl-1H-pyrazol-3-ylamino)-1H-pyrazolo[3,4-d]pyrimidin-6-ylamino)-2-cyclohexylethanol (7)]
- IC50 [2]: 5 nM

SMILES: COc1cc([C@H](CO)Nc2nc(Nc3cc(C(C)(C)C)n(C)n3)c3c[nH]nc3n2)ccn1 [(R)-2-(4-(5-tert-butyl-1-methyl-1H-pyrazol-3-ylamino)-1H-pyrazolo[3,4-d]pyrimidin-6-ylamino)-2-(2-methoxypyridin-4-yl)ethanol (18)]
- IC50 [1]: 15 nM
- IC50 [2]: 1.2 nM

SMILES: Cn1nc(Nc2nc(N[C@@H](CO)C3CCCCC3)nc3n[nH]cc23)cc1C(C)(C)C [(R)-2-(4-(5-tert-butyl-1-methyl-1H-pyrazol-3-ylamino)-1H-pyrazolo[3,4-d]pyrimidin-6-ylamino)-2-cyclohexylethanol (6)]
- IC50 [2]: 0.6 nM

SMILES: Cn1nc(Nc2nc(N[C@@H](CO)c3ccccc3)nc3n[nH]cc23)cc1C(C)(C)C [(R)-2-(4-(5-tert-butyl-1-methyl-1H-pyrazol-3-ylamino)-1H-pyrazolo[3,4-d]pyrimidin-6-ylamino)-2-phenylethanol (10)]
- IC50 [1]: < 5 nM
- IC50 [2]: 1 nM

SMILES: Cn1nc(Nc2nc(N[C@@H](COC(=O)NCCN3CCC(=O)N3)c3ccccc3)nc3n[nH]cc23)cc1C(C)(C)C [(R)-2-(4-(5-tert-butyl-1-methyl-1H-pyrazol-3-ylamino)-1H-pyrazolo[3,4-d]pyrimidin-6-ylamino)-2-phenylethyl 2-(3-oxopyrazolidin-1-yl)ethylcarbamate (25)]
- IC50 [1]: 60 nM
- IC50 [2]: 7 nM

SMILES: Cn1nc(Nc2nc(N[C@@H](COC(=O)NCCN)c3ccccc3)nc3n[nH]cc23)cc1C(C)(C)C [(R)-2-(4-(5-tert-butyl-1-methyl-1H-pyrazol-3-ylamino)-1H-pyrazolo[3,4-d]pyrimidin-6-ylamino)-2-phenylethyl 2-aminoethylcarbamate (22)]
- IC50 [1]: 4 nM
- IC50 [2]: 0.7 nM

SMILES: Cn1nc(Nc2nc(N[C@@H](COC(=O)NCCO)c3ccccc3)nc3n[nH]cc23)cc1C(C)(C)C [(R)-2-(4-(5-tert-butyl-1-methyl-1H-pyrazol-3-ylamino)-1H-pyrazolo[3,4-d]pyrimidin-6-ylamino)-2-phenylethyl 2-hydroxyethylcarbamate (21)]
- IC50 [1]: 3 nM
- IC50 [2]: 2 nM

SMILES: CN1C(=O)NC[C@H]1CNC(=O)OC[C@H](Nc1nc(Nc2cc(C(C)(C)C)n(C)n2)c2c[nH]nc2n1)c1ccccc1 [(R)-2-(4-(5-tert-butyl-1-methyl-1H-pyrazol-3-ylamino)-1H-pyrazolo[3,4-d]pyrimidin-6-ylamino)-2-phenylethyl ((S)-3-methyl-2-oxoimidazolidin-4-yl)methylcarbamate (24)]
- IC50 [1]: 3 nM
- IC50 [2]: < 0.5 nM

SMILES: Cn1nc(Nc2nc(N[C@@H](COC(=O)NO)c3ccccc3)nc3n[nH]cc23)cc1C(C)(C)C [(R)-2-(4-(5-tert-butyl-1-methyl-1H-pyrazol-3-ylamino)-1H-pyrazolo[3,4-d]pyrimidin-6-ylamino)-2-phenylethyl hydroxycarbamate (20)]
- IC50 [1]: 52 nM
- IC50 [2]: 6 nM

SMILES: Cn1nc(Nc2nc(N[C@@H](COC(=O)NCc3cc(=O)c(O)cn3O)c3ccccc3)nc3[nH]ncc23)cc1C(C)(C)C [(R)-2-(4-(5-tert-butyl-1-methyl-1H-pyrazol-3-ylamino)-1H-pyrazolo[3,4-d]pyrimidin-6-ylamino)-2-phenylethyl(1,5-dihydroxy-4-oxo-1,4-dihydropyridin-2-yl)methylcarbamate (23)]
- IC50 [1]: < 1 nM
- IC50 [2]: 1.3 nM

SMILES: CC(C)[C@H](CO)Nc1nc(Nc2cc(C(C)(C)C)n(C)n2)c2c[nH]nc2n1 [(R)-2-(4-(5-tert-butyl-1-methyl-1H-pyrazol-3-ylamino)-1H-pyrazolo[3,4-d]pyrimidin-6-ylamino)-3-methylbutan-1-ol (9)]
- IC50 [1]: 188 nM
- IC50 [2]: 13 nM

SMILES: Cn1nc(Nc2nc(N[C@@H](CO)c3ccncc3Cl)nc3n[nH]cc23)cc1C(C)(C)C [(R)-2-((4-((5-(tert-butyl)-1-methyl-1H-pyrazol-3-yl)amino)-1H-pyrazolo[3,4-d]pyrimidin-6-yl)amino)-2-(3-chloropyridin-4-yl)ethanol (19)]
- IC50 [1]: 57 nM
- IC50 [2]: 8 nM

SMILES: COc1ccc([C@H](CO)Nc2nc(Nc3cc(C(C)(C)C)n(C)n3)c3c[nH]nc3n2)cc1 [(R)-2-((4-((5-(tert-butyl)-1-methyl-1H-pyrazol-3-yl)amino)-1H-pyrazolo[3,4-d]pyrimidin-6-yl)amino)-2-(4-methoxyphenyl)ethanol (16)]
- IC50 [1]: 21 nM
- IC50 [2]: 4 nM

SMILES: Cn1nc(Nc2nc(N[C@@H](CO)c3ccccn3)nc3n[nH]cc23)cc1C(C)(C)C [(R)-2-((4-((5-(tert-butyl)-1-methyl-1H-pyrazol-3-yl)amino)-1H-pyrazolo[3,4-d]pyrimidin-6-yl)amino)-2-(pyridin-2-yl)ethanol (14)]
- IC50 [1]: 40 nM
- IC50 [2]: 8 nM

SMILES: Cn1nc(Nc2nc(N[C@@H](CO)c3cccnc3)nc3n[nH]cc23)cc1C(C)(C)C [(R)-2-((4-((5-(tert-butyl)-1-methyl-1H-pyrazol-3-yl)amino)-1H-pyrazolo[3,4-d]pyrimidin-6-yl)amino)-2-(pyridin-3-yl)ethanol (15)]
- IC50 [2]: 9 nM

SMILES: Cn1nc(Nc2nc(N[C@@H](COC(=O)N3CCOC(CN)C3)c3ccccc3)nc3n[nH]cc23)cc1C(C)(C)C (stereo partly drawn) [(R)-((R)-2-(4-(5-tert-butyl-1-methyl-1H-pyrazol-3-ylamino)-1H-pyrazolo[3,4-d]pyrimidin-6-ylamino)-2-phenylethyl) 2-(aminomethyl)morpholine-4-carboxylate (26)]
- IC50 [1]: 5 nM
- IC50 [2]: 0.6 nM

SMILES: Cc1cc([C@H](CO)Nc2nc(Nc3cc(C(C)(C)C)n(C)n3)c3c[nH]nc3n2)on1 [(S)-2-(4-(5-tert-butyl-1-methyl-1H-pyrazol-3-ylamino)-1H-pyrazolo[3,4-d]pyrimidin-6-ylamino)-2-(3-methylisoxazol-5-yl)ethanol (12)]
- IC50 [1]: 60 nM
- IC50 [2]: 7 nM

SMILES: Cn1nc(Nc2nc(N[C@H](CO)c3ccccc3)nc3[nH]ncc23)cc1C(C)(C)C [(S)-2-(4-(5-tert-butyl-1-methyl-1H-pyrazol-3-ylamino)-1H-pyrazolo[3,4-d]pyrimidin-6-ylamino)-2-phenylethanol (11)]
- IC50 [1]: 11 nM
- IC50 [2]: 8 nM

SMILES: Cn1nc(Nc2nc(N[C@H](CO)c3cccc(F)c3)nc3n[nH]cc23)cc1C(C)(C)C [(S)-2-((4-((5-(tert-butyl)-1-methyl-1H-pyrazol-3-yl)amino)-1H-pyrazolo[3,4-d]pyrimidin-6-yl)amino)-2-(3-fluorophenyl)ethanol (17)]
- IC50 [1]: 4 nM
- IC50 [2]: < 0.5 nM

SMILES: OC[C@@H](Nc1nc(Nc2cc(C3CC3)n[nH]2)c2c[nH]nc2n1)C1CCCCC1 [(S)-2-cyclohexyl-2-(4-(3-cyclopropyl-1H-pyrazol-5-ylamino)-1H-pyrazolo[3,4-d]pyrimidin-6-ylamino)ethanol (2)]
- IC50 [2]: 50 nM

SMILES: CC(C)c1cc(Nc2nc(N[C@H](CO)C3CCCCC3)nc3n[nH]cc23)[nH]n1 [(S)-2-cyclohexyl-2-(4-(5-isopropyl-1H-pyrazol-3-ylamino)-1H-pyrazolo[3,4-d]pyrimidin-6-ylamino)ethanol (3)]
- IC50 [2]: 10 nM
